According to patent US6783949B1, “Processes for determining whether a test substance contains lipases or lipase inhibitors” (Aventis Pharma Deutschland GmbH, priority 1999, dated 2004):

Target: T1, HSL (Rattus norvegicus, UniProt P15304)
T1 construct: The partially purified HSL can be stored at −70° C. for 4 to 6 weeks; from tissue; host or cells: rat epididymal fat cells (male Wistar rats)
T1 sequence (P15304 1-768 isoform P15304-2): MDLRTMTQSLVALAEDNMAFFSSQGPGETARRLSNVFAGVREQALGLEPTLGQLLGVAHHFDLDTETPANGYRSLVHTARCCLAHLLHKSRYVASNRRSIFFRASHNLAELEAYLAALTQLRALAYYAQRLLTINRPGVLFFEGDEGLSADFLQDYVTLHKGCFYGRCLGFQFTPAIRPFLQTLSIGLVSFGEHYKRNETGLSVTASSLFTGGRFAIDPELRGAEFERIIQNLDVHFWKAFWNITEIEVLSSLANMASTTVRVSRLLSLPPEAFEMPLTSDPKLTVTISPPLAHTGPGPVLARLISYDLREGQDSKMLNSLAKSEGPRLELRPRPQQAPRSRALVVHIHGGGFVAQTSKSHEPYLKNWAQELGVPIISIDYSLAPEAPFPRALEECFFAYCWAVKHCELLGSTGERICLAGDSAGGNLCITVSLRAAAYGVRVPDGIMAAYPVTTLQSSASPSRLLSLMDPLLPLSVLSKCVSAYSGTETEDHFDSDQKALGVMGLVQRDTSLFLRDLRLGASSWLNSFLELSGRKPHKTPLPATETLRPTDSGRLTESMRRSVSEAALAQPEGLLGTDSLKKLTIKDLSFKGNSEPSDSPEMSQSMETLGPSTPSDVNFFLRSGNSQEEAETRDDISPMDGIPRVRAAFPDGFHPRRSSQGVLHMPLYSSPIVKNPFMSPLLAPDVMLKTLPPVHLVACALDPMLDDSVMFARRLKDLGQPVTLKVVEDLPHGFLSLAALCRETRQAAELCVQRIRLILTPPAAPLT
Test: Indirect NAG assay (extinction increase at 481 nm)
Assay type: biochemical
Settings: 60 min
Experimental: A typical reaction is carried out at 30° C. for 60 min, for example in 1.5 ml Eppendorf vessels or 96-hole plates. […] 180 μl of the substrate solution (20 μg/ml of phosphatidylcholine, 10 μg/ml of phosphatidylinositol, 50 μg/ml of NAG in assay buffer) are added. After a preincubation for 15 min at 30° C., 20 μl of HSL in assay buffer are pipetted in and the extinction is immediately measured (see above) at 481 nm in a cuvette photometer (0.5 ml cuvette) or microtiter plate reader. After a certain incubation time, which is variable and depends on the chosen enzyme concentration and can be between 2 and 240 minutes, in this case incubation at 30° C. for 60 min, the extinction is measured again. The increase in the extinction in the yellow region, in this case at 481 nm, is a measure of the enzyme activity.
Isolated rat fat cells are obtained from epididymal fatty tissue from untreated male rats (Wistar, 220-250 g) by collagenase treatment according to published processes. The fat cells from 10 rats are washed three times by flotation with 50 ml each of homogenization buffer ([…], pH 7.4, 0.25 M sucrose, 1 mM ethylenediamine-N,N,N′,N′-tetraacetic acid (EDTA), 1 mM dithiothreitol (DTT), 10 μg/ml of leupeptin, 10 μg/ml of antipain, 20 μg/ml of pepstatin) and finally taken up in 10 ml of homogenization buffer. The fat cells are homogenized in a Teflon-in-glass homogenizer (Braun-Melsungen) by 10 strokes at 1500 rpm and 15° C. The homogenizate is centrifuged (Sorvall SM24 tubes, 5000 rpm, 10 min, 4° C.). The […] between the overlying fatty layer and the pellet is removed and the centrifugation is repeated. The […] resulting from this is centrifuged again (Sorvall SM24 tubes, 20,000 rpm, 45 min, 4° C.). […] After incubation for 60 min at 4° C. (shake at intervals of 15 min), the batch is centrifuged (Sorvall SM24 tubes, 3000 rpm, 10 min, 4° C.). The supernatant is brought to pH 5.2 by addition of glacial acetic acid and incubated at 4° C. for 30 min. […] The suspension is dialyzed overnight at 4° C. against 25 mM TRIS/HCl, pH 7.4, 50% glycerol, 1 mM DTT, and 10 μg/ml of leupeptin, pepstatin, and antipain and then applied to a hydroxylapatite column (0.1 g per 1 ml of suspension, equilibrated with 10 mM potassium phosphate, pH 7.0, 30% glycerol, 1 mM DTT). The column is washed with four volumes of equilibration buffer at a flow rate of 20 to 30 ml/h. The HSL is eluted with a volume of equilibration buffer which contains 0.5 M potassium phosphate, then dialyzed (see above) and concentrated 5 to 10 times by ultrafiltration (Amicon Diaflo PM 10 filter) at 4° C. The partially purified HSL can be stored at −70° C. for 4 to 6 weeks.
6 mg of phosphatidylcholine and 6 mg of phosphatidylinositol are dissolved in 1 ml of chloroform each. 10 mg of NAG are dissolved in 1 ml of chloroform. […] The chloroform (225 μl total volume) is completely removed by overblowing with a stream of N2. The dried substrate can be stored at 4° C. for up to three days. For the preparation of the phospholipid vesicles/micelles having intercalated NAG (on the test day), the dried substrate is taken up in 20 ml of assay buffer (25 mM TRIS/HCl, pH 7.4; 150 mM NaCl) and two ultrasonic treatments with an ultrasonic probe (Branson Sonifier type 11, standard microtip): 1st treatment setting 2, 2×1 min, in between in each case 1 min on ice; 2nd treatment setting 4, 2×1 min, in between in each case 1 min on ice. […] Before use as a substrate (within the next 2 h), the solution is additionally incubated on ice for 15 min.
The assay is carried out at 30° C. for 60 min in 1.5 ml Eppendorf vessels or 96-hole plates.

O=C(CCCCCCCCCCCNc1ccc([N+](=O)[O-])c2nonc12)OCC(O)CO (centres unmarked) [Compound (3)]
Increase in the absorption at 481 nm (NAG 0.075 mg/ml, HSL 40 μg): 15502 ± 1077 arb. units
Increase in the absorption at 481 nm (NAG 0.1 mg/ml, HSL 5 μg): 1521 ± 119 arb. units
Increase in the absorption at 481 nm (NAG 0.1 mg/ml, HSL 20 μg): 6124 ± 577 arb. units
Increase in the absorption at 481 nm (NAG 0.1 mg/ml, HSL 40 μg): 19223 ± 1599 arb. units
Increase in the absorption at 481 nm (NAG 0.15 mg/ml, HSL 5 μg): 1983 ± 155 arb. units
Increase in the absorption at 481 nm (NAG 0.15 mg/ml, HSL 20 μg): 7544 ± 603 arb. units
Increase in the absorption at 481 nm (NAG 0.15 mg/ml, HSL 40 μg): 26730 ± 2069 arb. units
Increase in the absorption at 481 nm (NAG 0.2 mg/ml, HSL 5 μg): 2242 ± 186 arb. units
Increase in the absorption at 481 nm (NAG 0.2 mg/ml, HSL 20 μg): 8898 ± 961 arb. units
Increase in the absorption at 481 nm (NAG 0.2 mg/ml, HSL 40 μg): 31641 ± 2304 arb. units
Increase in the absorption at 481 nm (NAG 0.3 mg/ml, HSL 5 μg): 2489 ± 213 arb. units
Increase in the absorption at 481 nm (NAG 0.3 mg/ml, HSL 20 μg): 9734 ± 825 arb. units
Increase in the absorption at 481 nm (NAG 0.3 mg/ml, HSL 40 μg): 35953 ± 3355 arb. units
Increase in the absorption at 481 nm (PI/PC 0 mg/ml, PI:PC 1:1, HSL 20 μg, NAG 0.05 mg/ml): 134 ± 23 arb. units
Increase in the absorption at 481 nm (PI/PC 0 mg/ml, PI:PC 1:3, HSL 20 μg, NAG 0.05 mg/ml): 89 ± 12 arb. units
Increase in the absorption at 481 nm (PI/PC 0 mg/ml, PI:PC 3:1, HSL 20 μg, NAG 0.05 mg/ml): 173 ± 42 arb. units
Increase in the absorption at 481 nm (PI/PC 0.009 mg/ml, PI:PC 1:1, HSL 20 μg, NAG 0.05 mg/ml): 548 ± 76 arb. units
Increase in the absorption at 481 nm (PI/PC 0.009 mg/ml, PI:PC 1:3, HSL 20 μg, NAG 0.05 mg/ml): 289 ± 77 arb. units
Increase in the absorption at 481 nm (PI/PC 0.009 mg/ml, PI:PC 3:1, HSL 20 μg, NAG 0.05 mg/ml): 1437 ± 132 arb. units
Increase in the absorption at 481 nm (PI/PC 0.018 mg/ml, PI:PC 1:1, HSL 20 μg, NAG 0.05 mg/ml): 1430 ± 188 arb. units
Increase in the absorption at 481 nm (PI/PC 0.018 mg/ml, PI:PC 1:3, HSL 20 μg, NAG 0.05 mg/ml): 692 ± 94 arb. units
Increase in the absorption at 481 nm (PI/PC 0.018 mg/ml, PI:PC 3:1, HSL 20 μg, NAG 0.05 mg/ml): 2610 ± 306 arb. units
Increase in the absorption at 481 nm (PI/PC 0.075 mg/ml, PI:PC 1:1, HSL 20 μg, NAG 0.05 mg/ml): 1138 ± 125 arb. units
Increase in the absorption at 481 nm (PI/PC 0.075 mg/ml, PI:PC 1:3, HSL 20 μg, NAG 0.05 mg/ml): 1679 ± 143 arb. units
Increase in the absorption at 481 nm (PI/PC 0.075 mg/ml, PI:PC 3:1, HSL 20 μg, NAG 0.05 mg/ml): 3365 ± 402 arb. units
Increase in the absorption at 481 nm (PI/PC 0.15 mg/ml, PI:PC 1:1, HSL 20 μg, NAG 0.05 mg/ml): 745 ± 97 arb. units
Increase in the absorption at 481 nm (PI/PC 0.15 mg/ml, PI:PC 1:3, HSL 20 μg, NAG 0.05 mg/ml): 912 ± 103 arb. units
Increase in the absorption at 481 nm (PI/PC 0.15 mg/ml, PI:PC 3:1, HSL 20 μg, NAG 0.05 mg/ml): 2108 ± 256 arb. units
Increase in the absorption at 481 nm (PI/PC 0.3 mg/ml, PI:PC 1:1, HSL 20 μg, NAG 0.05 mg/ml): 335 ± 47 arb. units
Increase in the absorption at 481 nm (PI/PC 0.3 mg/ml, PI:PC 1:3, HSL 20 μg, NAG 0.05 mg/ml): 427 ± 56 arb. units
Increase in the absorption at 481 nm (PI/PC 0.3 mg/ml, PI:PC 3:1, HSL 20 μg, NAG 0.05 mg/ml): 913 ± 102 arb. units
Extinction change at 480 nm (standard conditions, 20 μg of partially purified HSL): 4000 arb. units
